“And” between values parts separate entries of the source, which are not always exact repeats. Identical values can stand only once.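 Step 1: Grow cells in 96-well plates. Step 2: Expose to compound for 48 hours at 5 concentrations. Step 3: Interpolate endpoints linearly; if unreached, use highest concentration. The concentration for 50% growth inhibition is given as GI50. TGI: concentration producing complete growth inhibition.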
Columns and labels:
Test in all cases: NCI tumour cell line growth inhibition, 48 h
SN12C renal = system: SN12C renal
SNB-19 CNS = system: SNB-19 CNS
HT29 colon = system: HT29 colon
OVCAR-4 ovarian = system: OVCAR-4 ovarian
KM20L2 colon = system: KM20L2 colon
MOLT-4 leukemia = system: MOLT-4 leukemia
A498 renal = system: A498 renal
DMS 114 small cell lung = system: DMS 114 small cell lung
UACC-257 melanoma = system: UACC-257 melanoma
786-0 renal = system: 786-0 renal
SR leukemia = system: SR leukemia
LXFL 529 NSCLC = system: LXFL 529 NSCLC
HCT-15 colon = system: HCT-15 colon
LOX IMVI melanoma = system: LOX IMVI melanoma
HCC-2998 colon = system: HCC-2998 colon
A549 NSCLC = system: A549 NSCLC
M19-MEL melanoma = system: M19-MEL melanoma
CAKI-1 renal = system: CAKI-1 renal
SK-MEL-2 melanoma = system: SK-MEL-2 melanoma
NCI-H23 lung = system: NCI-H23 lung
UACC-62 melanoma = system: UACC-62 melanoma
HL-60(TB) leukemia = system: HL-60(TB) leukemia
SF-268 CNS = system: SF-268 CNS
NCI-H226 lung = system: NCI-H226 lung
SNB-78 CNS = system: SNB-78 CNS
OVCAR-3 ovarian = system: OVCAR-3 ovarian
RPMI-8226 leukemia = system: RPMI-8226 leukemia
KM12 colon = system: KM12 colon
SF-295 CNS = system: SF-295 CNS
M14 melanoma = system: M14 melanoma
IGROV1 ovarian = system: IGROV1 ovarian
SK-MEL-28 melanoma = system: SK-MEL-28 melanoma
U251 CNS = system: U251 CNS
OVCAR-8 ovarian = system: OVCAR-8 ovarian
HOP-92 NSCLC = system: HOP-92 NSCLC
SNB-75 CNS = system: SNB-75 CNS
TK-10 renal = system: TK-10 renal
RXF 393 renal = system: RXF 393 renal
OVCAR-5 ovarian = system: OVCAR-5 ovarian
SF-539 CNS = system: SF-539 CNS
XF 498 CNS = system: XF 498 CNS
K-562 leukemia = system: K-562 leukemia
MALME-3M melanoma = system: MALME-3M melanoma
CCRF-CEM leukemia = system: CCRF-CEM leukemia
HCT-116 colon = system: HCT-116 colon
SW-620 colon = system: SW-620 colon
HOP-18 NSCLC = system: HOP-18 NSCLC
HOP-62 NSCLC = system: HOP-62 NSCLC
NCI-H460 lung = system: NCI-H460 lung
ACHN renal = system: ACHN renal
RXF-631 renal = system: RXF-631 renal
UO-31 renal = system: UO-31 renal
EKVX NSCLC = system: EKVX NSCLC
DU-145 prostate = system: DU-145 prostate
T-47D breast = system: T-47D breast
MDA-N = system: MDA-N
PC-3 prostate = system: PC-3 prostate
P388/ADR leukemia = system: P388/ADR leukemia
HS 578T breast = system: HS 578T breast
BT-549 breast = system: BT-549 breast
MDA-MB-435 = system: MDA-MB-435

COC12CC(=O)C(C(C)=O)=C(O)C1(C)c1c(OC(C)=O)c(C)c(O)c(C(C)=O)c1O2 (configuration not stated) showed a TGI (SN12C renal) of 64.7 µM, a TGI (SNB-19 CNS) of over 100 µM and a TGI (HT29 colon) of 78.7 µM. It also gave a TGI (OVCAR-4 ovarian) of over 100 µM, a TGI (KM20L2 colon) of over 100 µM and a TGI (MOLT-4 leukemia) of over 100 µM. It also gave a TGI (A498 renal) of 78.1 µM, a TGI (DMS 114 small cell lung) of over 100 µM and a TGI (UACC-257 melanoma) of 91.4 µM. For the same compound, the TGI (786-0 renal) was over 100 µM, the TGI (SR leukemia) was over 100 µM and the TGI (LXFL 529 NSCLC) was over 100 µM. For the same compound, the TGI (HCT-15 colon) was over 100 µM, the TGI (LOX IMVI melanoma) was over 100 µM and the TGI (HCC-2998 colon) was 84 µM. It also gave a TGI (A549 NSCLC) of over 100 µM, a TGI (M19-MEL melanoma) of over 100 µM and a TGI (CAKI-1 renal) of 54.1 µM. The TGI (SK-MEL-2 melanoma) was 53.6 µM, the TGI (NCI-H23 lung) was 31.3 µM and the TGI (UACC-62 melanoma) was 23.4 µM. For the same compound, the TGI (HL-60(TB) leukemia) was 42.5 µM, the TGI (SF-268 CNS) was over 100 µM and the TGI (NCI-H226 lung) was 65.7 µM. It also gave a TGI (SNB-78 CNS) of over 100 µM, a TGI (OVCAR-3 ovarian) of 69.9 µM and a TGI (RPMI-8226 leukemia) of over 100 µM. For the same compound, the TGI (KM12 colon) was over 100 µM, the TGI (SF-295 CNS) was over 100 µM and the TGI (M14 melanoma) was over 100 µM. For the same compound, the TGI (IGROV1 ovarian) was over 100 µM, the TGI (SK-MEL-28 melanoma) was over 100 µM and the TGI (U251 CNS) was over 100 µM. It also gave a TGI (OVCAR-8 ovarian) of over 100 µM, a TGI (HOP-92 NSCLC) of 52 µM and a TGI (SNB-75 CNS) of 80.6 µM. For the same compound, the TGI (TK-10 renal) was 69.7 µM, the TGI (RXF 393 renal) was 62.5 µM and the TGI (OVCAR-5 ovarian) was over 100 µM. The TGI (SF-539 CNS) was over 100 µM, the TGI (XF 498 CNS) was 70.7 µM and the TGI (K-562 leukemia) was over 100 µM. For the same compound, the TGI (MALME-3M melanoma) was 60.2 µM, the TGI (CCRF-CEM leukemia) was 66.8 µM and the TGI (HCT-116 colon) was over 100 µM. The TGI (SW-620 colon) was over 100 µM, the TGI (HOP-18 NSCLC) was 51.9 µM and the TGI (HOP-62 NSCLC) was 95.8 µM. For the same compound, the TGI (NCI-H460 lung) was over 100 µM, the TGI (ACHN renal) was 99.2 µM and the TGI (RXF-631 renal) was over 100 µM. It also gave a TGI (UO-31 renal) of 33 µM and a TGI (EKVX NSCLC) of 93.6 µM.

In the case of COc1cc2cc(c1Cl)N(C)C(=O)C[C@H](OC(=O)[C@H](C)N(C)C(C)=O)[C@]1(C)O[C@H]1[C@H](C)[C@@H]1C[C@@](O)(NC(=O)O1)[C@H](OC)C=C/C=C(\C)C2, the GI50 (DU-145 prostate) is reported as 0.0553 µM, the GI50 (786-0 renal) is reported as 0.0019 µM and the GI50 (SR leukemia) is reported as 0.000336 µM. It also gave a TGI (SR leukemia) of 0.0106 µM, a GI50 (T-47D breast) of 0.0142 µM and a TGI (T-47D breast) of 0.0714 µM. For the same compound, the TGI (MDA-N) was 0.0709 µM and 0.0274 µM, the GI50 (PC-3 prostate) was 0.0371 µM and the GI50 (M14 melanoma) was 0.00128 µM. The TGI (P388/ADR leukemia) was 1.87 µM and 9.07 µM, the GI50 (TK-10 renal) was 0.0144 µM and the TGI (TK-10 renal) was 0.0804 µM. The GI50 (HS 578T breast) was 0.000745 µM, the TGI (HOP-18 NSCLC) was > 95.6 µM and 239 µM and the GI50 (ACHN renal) was 0.00211 µM. The TGI (ACHN renal) was 0.0595 µM, the GI50 (BT-549 breast) was 0.000623 µM and the GI50 (MDA-MB-435) was 0.00168 µM. The TGI (MDA-MB-435) was 0.00755 µM and < 0.0146 µM.

From PubChem BioAssay (NCI)
